According to patent US20240391862A1, “(1,4,5-TRISUBSTITUTED-1H-PYRAZOL-3-YL)OXY-2-ALKOXY ALKYL ACIDS AND THEIR DERIVATIVES, THEIR SALTS AND THEIR USE AS HERBICIDAL AGENTS” (Bayer AKtiengesellschaft, priority 2021, published 2024):

Key:
[1] = system: LOLRI; assay: Pre-emergence herbicidal effect, greenhouse pot test; type: in vivo, Lolium rigidum; conditions: 320 g/ha, scored visually after about 3 weeks vs untreated controls
Source text: (§1) Seeds of monocotyledonous and dicotyledonous weed plants and crop plants are placed in plastic or organic planting pots and covered with soil. The compounds of the invention, formulated in the form of wettable powders (WP) or as emulsion concentrates (EC), are then applied to the surface of the covering soil as aqueous suspension or emulsion with addition of 0.5% additive at a water application rate equivalent to 600 l/ha. After the treatment, the pots are placed in a greenhouse and kept under good growth conditions for the trial plants. After about 3 weeks, the effect of the preparations is scored visually in comparison with untreated controls as percentages. For example, 100% activity=the plants have died, 0% activity=like control plants.
(§2) Tables 1a to 19c below show the effects/crop compatibilities of selected compounds of the general formula (I) on various harmful plants at an application rate corresponding to 20 to 320 g/ha, which were obtained by the trial procedure specified above.
(§3) • ALOMY: Alopecurus myosuroides SETVI: Setaria viridis • AVEFA: Avena fatua POLCO: Fallopia convolvulus • AMARE: Amaranthus retroflexus ECHCG: Echinochloa crus-galli • LOLRJ: Lolium rigidum STEME: Stellaria media • VERPE: Veronica persica MATIN: Tripleurospermum inodorum • DIGSA: Digitaria sanguinalis ABUTH: Abutylon threophrasti • TRZAS: Triticum aestivum VIOTR: Viola tricolor • BRSNW: Brassica napus ZEAMX: Zea mays • PHBPU: Ipomoea purpurea GLXMA: Glycine max • ORYSA: Oryza sativa HORMU: Hordeum murinum

[2] = system: ZEAMX; assay: Pre-emergence herbicidal effect and crop plant compatibility, greenhouse pot test; type: in vivo, Zea mays; conditions: scored visually after about 3 weeks vs untreated controls
Source text: as §1, §2, §3

[3] = system: KCHSC; assay: Pre-emergence herbicidal effect, greenhouse pot test; type: in vivo; conditions: 320 g/ha, scored visually after about 3 weeks vs untreated controls
Source text: as §1, with “control plants. Tables 1a to 19c below show the effects/crop compatibilities of selected compounds of the general formula (I) on various harmful plants at an application rate corresponding to 20 to 320 g/ha, which were obtained by the trial procedure specified above.” for “control plants.”

[4] = system: DIGSA; assay: as above; type: in vivo, Digitaria sanguinalis; conditions: 320 g/ha, scored visually after about 3 weeks vs untreated controls
Source text: as §1, §2, §3

[5] = system: SETVI; assay: as above; type: in vivo, Setaria viridis; conditions: Setaria viridis, 504 h, 320 g/ha, scored visually after about 3 weeks vs untreated controls, read-out: Pre-emergence effect at 320 g/ha against SETVI in %
Source text: as §1, §2, §3

[6] = system: AMARE; assay: as above; type: in vivo, Amaranthus retroflexus; conditions: scored visually after about 3 weeks vs untreated controls; for pest or weed control at 320 g/ha: Amaranthus retroflexus, 504 h, read-out: Pre-emergence effect at 320 g/ha against AMARE in %
Source text: as §1, §2, §3

[7] = system: ALOMY; assay: as above; type: in vivo, Alopecurus myosuroides; conditions: 320 g/ha, scored visually after about 3 weeks vs untreated controls
Source text: as §1, §2, §3

[8] = system: ECHCG; assay: as above; type: in vivo, Echinochloa crus-galli; conditions: scored visually after about 3 weeks vs untreated controls; for pest or weed control at 320 g/ha: Echinochloa crus-galli, 504 h, read-out: Pre-emergence effect at 320 g/ha against ECHCG in %
Source text: as §1, §2, §3

[9] = system: AVEFA; assay: as above; type: in vivo, Avena fatua; conditions: scored visually after about 3 weeks vs untreated controls
Source text: as §1, §2, §3

[10] = system: MATIN; assay: as above; type: in vivo, Tripleurospermum inodorum; conditions: scored visually after about 3 weeks vs untreated controls; for pest or weed control at 320 g/ha: Tripleurospermum inodorum, 504 h, read-out: Pre-emergence effect at 320 g/ha against MATIN in %
Source text: as §1, §2, §3

[11] = system: POLCO; assay: as above; type: in vivo, Fallopia convolvulus; conditions: scored visually after about 3 weeks vs untreated controls; for pest or weed control at 320 g/ha: Fallopia convolvulus, 504 h, read-out: Pre-emergence effect at 320 g/ha against POLCO in %
Source text: as §1, §2, §3

[12] = system: VIOTR; assay: as above; type: in vivo, Viola tricolor; conditions: scored visually after about 3 weeks vs untreated controls
Source text: as §1, §2, §3

[13] = system: VERPE; assay: as above; type: in vivo, Veronica persica; conditions: scored visually after about 3 weeks vs untreated controls
Source text: as §1, §2, §3

[14] = system: ABUTH; assay: as above; type: in vivo, Abutilon theophrasti; conditions: 320 g/ha, scored visually after about 3 weeks vs untreated controls
Source text: as §1, §2, §3

[15] = system: PHBPU; assay: as above; type: in vivo, Ipomoea purpurea; conditions: scored visually after about 3 weeks vs untreated controls
Source text: as §1, §2, §3

[16] = system: TRZAS; assay: Post-emergence herbicidal effect and crop plant compatibility, greenhouse pot test; type: in vivo, Triticum aestivum; conditions: Triticum aestivum, 504 h, 20 g/ha, one-leaf stage, rated visually after about 3 weeks vs untreated controls, read-out: Post-emergence effect at 20 g/ha against TRZAS in %
Summary of the method: (§4)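 Visual % activity scored roughly 3 weeks post-spray against untreated plants, where 100% means death and 0% equals control. Plants were treated at the one-leaf stage, 2 to 3 weeks after sowing in sandy loam, at 20 to 320 g/ha.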

[17] = system: ZEAMX; assay: as above; type: in vivo, Zea mays; conditions: Zea mays, 504 h, one-leaf stage, rated visually after about 3 weeks vs untreated controls
Summary of the method: as §4

[18] = system: BRSNW; type: in vivo, Brassica napus; conditions: one-leaf stage, rated visually after about 3 weeks vs untreated controls
Source text: as §3
Seeds of monocotyledonous and dicotyledonous weeds and crop plants are placed in sandy loam in plastic or organic planting pots, covered with soil and cultivated in a greenhouse under controlled growth conditions. 2 to 3 weeks after sowing, the trial plants are treated at the one-leaf stage. The compounds of the invention, formulated in the form of wettable powders (WP) or as emulsion concentrates (EC), are then sprayed onto the green parts of the plants as aqueous suspension or emulsion with addition of 0.5% additive at a water application rate of 600 l/ha (converted). After the test plants have been kept in the greenhouse under optimum growth conditions for about 3 weeks, the activity of the preparations is rated visually in comparison to untreated controls. For example, 100% activity=the plants have died, 0% activity=like control plants.
Tables 20a to 38c below show the effects/crop compatibilities of selected compounds of the general formula (I) on various harmful plants at an application rate corresponding to 20 to 320 g/ha, which were obtained by the trial procedure specified above.

Structure (SMILES)	Pre-emergence effect at 320 g/ha against LOLRI in % [1] [%]	Pre-emergence effect at 320 g/ha against DIGSA in % [4] [%]	pest or weed control at 320 g/ha [5] [%]	Pre-emergence effect at 80 g/ha against AMARE in % [6] [%]	pest or weed control at 320 g/ha [6] [%]	Pre-emergence effect at 320 g/ha against ALOMY in % [7] [%]	pest or weed control at 320 g/ha [8] [%]	Pre-emergence effect at 320 g/ha against AVEFA in % [9] [%]	pest or weed control at 320 g/ha [10] [%]	pest or weed control at 320 g/ha [11] [%]	Pre-emergence effect at 320 g/ha against VIOTR in % [12] [%]	also measured
COC(=O)C(OC)Oc1nn(-c2ccccc2F)c(-c2ccc(F)nc2)c1I (centres unmarked) [Example I-49]	90	100	100	90	100	90	90	90	90	80	90	Pre-emergence effect at 20 g/ha against ZEAMX in % ([2]; 20 g/ha): 0%; Pre-emergence effect at 80 g/ha against ZEAMX in % ([2]; 80 g/ha): 0%; Pre-emergence effect at 320 g/ha against KCHSC in % [3]: 100%
COC(=O)C(OC)Oc1nn(-c2cc(F)ccc2F)c(-c2cncc(F)c2)c1C1CC1 (centres unmarked) [Example I-31, Methyl {[4-cyclopropyl-1-(2,5-difluorophenyl)-5-(5-fluoropyridin-3-yl)-1H-pyrazol-3-yl]oxy}(methoxy)acetate]	100	90	90	100	100	100	100	90	100	100	100	Pre-emergence effect at 320 g/ha against VERPE in % [13]: 90%; Pre-emergence effect at 20 g/ha against AMARE in % ([6]; 20 g/ha): 80%; Pre-emergence effect at 320 g/ha against ABUTH in % [14]: 80%; Pre-emergence effect at 80 g/ha against PHBPU in % ([15]; 80 g/ha): 90%; Pre-emergence effect at 320 g/ha against PHBPU in % ([15]; 320 g/ha): 90%; Pre-emergence effect at 80 g/ha against ECHCG in % ([8]; 80 g/ha): 90%; Pre-emergence effect at 80 g/ha against AVEFA in % ([9]; 80 g/ha): 90%; Pre-emergence effect at 80 g/ha against MATIN in % ([10]; 80 g/ha): 90%; Pre-emergence effect at 20 g/ha against POLCO in % ([11]; 20 g/ha): 80%; Pre-emergence effect at 80 g/ha against POLCO in % ([11]; 80 g/ha): 100%; Pre-emergence effect at 80 g/ha against VIOTR in % ([12]; 80 g/ha): 100%
COC(Oc1nn(-c2ncccc2F)c(-c2ccc(F)nc2)c1Br)C(=O)O (centres unmarked) [Example I-45]	–	–	–	–	–	–	–	–	–	–	–	percent crop injury (phytotoxicity) to wheat, post-emergence at 20 g/ha [16]: 0%; plant injury at 20 g/ha ([17]; 20 g/ha, read-out: Post-emergence effect at 20 g/ha against ZEAMX in %): 0%; plant injury at 80 g/ha ([17]; 80 g/ha, read-out: Post-emergence effect at 80 g/ha against ZEAMX in %): 0%; plant injury at 320 g/ha ([17]; 320 g/ha, read-out: Post-emergence effect at 320 g/ha against ZEAMX in %): 0%; Post-emergence effect at 320 g/ha against BRSNW in % [18]: 0%
